The series in a line: solvent given as SMILES.

Molecules are shown by their SMILES. Several values for one entry are separate records, joined by “and”; a condition that tells them apart may be missing. Equal entries are not always repeated.

As to `CCC1=C(C)C(=O)n2c1cc1c(C)c(CC(=O)OC)c(C)n1c2=O`, the absorption maximum stood at 413 nm (in CC#N); 413 nm (in CC(C)=O); 420 nm (in CO); 421 nm (in CS(C)=O); 423 nm (in ClC(Cl)Cl); 416 nm (in c1ccccc1).
In turn, `CO[B-]1(OC)n2c(C)cc(C)c2C(c2ccc(I)cc2)=C2C(C)=CC(C)=[N+]21` registered an absorption maximum (in ClC(Cl)Cl) of 505 nm.
In the case of `CN(C)c1ccc(C#Cc2cc(C#Cc3ccc(N(C)C)cc3)c3ccc4c(C#Cc5ccc(C(F)(F)F)cc5)cc(C#Cc5ccc(N(C)C)cc5)c5ccc2c3c54)cc1`, where the note is “in ClCCl”, the absorption maximum is recorded as 506 nm.
Consider `Oc1ccccc1`, for which, under “in C1CCCCC1”, the absorption maximum is recorded as 265.96 nm.
`c1ccc(-c2nc(-c3ccc(-c4ccc(N(c5ccccc5)c5ccccc5)cc4)cn3)oc2-c2ccccc2)cc1`: the absorption maximum reads like this: (in C1CCOC1) 351 nm; (in C1COCCO1) 354 nm; (in CC#N) 353 nm; (in CC(C)=O) 352 nm; (in CC(C)OC(C)C) 351 nm; (in CCCCCC) 353 nm. The absorption maximum amounted to 353 nm (in CCCCOCCCC); 348 nm (in CCN(CC)CC); 351 nm (in CCOC(C)=O); 348 nm (in CCOCC); 358 nm (in Cc1ccccc1); 359 nm (in c1ccccc1).
With `CCOC(=O)CCOc1ccc(C(c2c(C)[nH]c3ccccc23)c2c(C)[nH]c3ccccc23)cc1`, for the setting “in C1CCCCC1”, the absorption maximum came to 290 nm.
Turning to `O=C1c2ccc3c4c(NC5CCCCC5)cc5c6c(ccc(c7c(NC8CCCCC8)cc(c2c37)C(=O)N1C1CCCCC1)c64)C(=O)N(C1CCCCC1)C5=O`, the absorption maximum (in ClC(Cl)Cl) turned out to be 703 nm.
In the case of `CCN(CC)c1ccc(/C=C/c2cc(/C=C/c3ccc(N(CC)CC)cc3)nc(N)n2)cc1`, the absorption maximum by setting is: (in Cc1ccccc1) 418 nm; (in ClC(Cl)Cl) 433 nm.
On to `CC(=O)c1c2c(cc3ccc(N(C)C)cc13)CCC2`, for which the absorption maximum came to 373 nm (in C1CCCCC1); 377 nm (in C1CCOC1); 376 nm (in C1COCCO1); 375 nm (in CC#N); 377 nm (in CCO); 377 nm (in CS(C)=O). Besides, the absorption maximum (in Cc1ccccc1) amounted to 376 nm, the absorption maximum (in ClC(Cl)Cl) turned out to be 377 nm and the absorption maximum (in ClCCl) worked out at 377 nm.
The compound `C(#Cc1ccccc1)C1=Cc2ccc3ccccc3c2NB1c1ccccc1` returned an absorption maximum (in C1CCCCC1) of 387 nm.
As for `CCCCc1ccc(-n2c3c4cc(F)ccc4nnc3c3c2c2nnc4ccc(F)cc4c2n3-c2ccc(CCCC)cc2)cc1`, the absorption maximum (in Cc1ccccc1) came to 315 nm.
As to `O=C1c2ccc3c4ccc5c6c(ccc(c7ccc(c2c37)C(=O)N1c1ccc(O)cc1)c64)C(=O)N(c1ccc(O)cc1)C5=O`, the absorption maximum runs as follows: (in C1CCOC1) 519 nm; (in CN1CCCC1=O) 525 nm; (in CN(C)C=O) 522 nm and 524 nm.
`COc1ccc(-c2cnc(/C=C/c3ccc(C#N)cc3)o2)cc1OC` yielded an absorption maximum (in ClCCl) of 370 nm.
Same read-out and setting: then `COc1cc(OC)cc(C2=[O+][B-](F)(F)OC(c3ccc4cc(OC)ccc4c3)=C2)c1`, with 427 nm.
Take `CC(C)CCCN1c2ccccc2CCc2ccccc21`: the absorption maximum (in CC#N) is on record as 276 nm and the absorption maximum (in CO) worked out at 276 nm.
The compound `COc1cc(C(=O)c2c(C)c3ccc4cccc5c6cccc7ccc2c(c76)c3c45)cc(OC)c1OC` yielded an absorption maximum (in ClCCl) of 391 nm.
In the case of `Cc1csc2[n+]1[B-](F)(F)OC(c1ccc(N(C)C)cc1)=N2`, the absorption maximum reads like this: (in C1CCOC1) 405 nm; (in CC#N) 403 nm; (in Cc1ccccc1) 407 nm; (in ClCCl) 406 nm.
Take `F[B-]1(F)OC(c2ccccc2)=C(c2ccccc2)c2sc3ccccc3[n+]21`: the absorption maximum (in C1CCOC1) is 360 nm.
Consider `COc1ccc(C2=C3C=c4c(oc5ccccc45)=[N+]3[B-](F)(F)n3c2cc2c4ccccc4oc23)cc1`, for which the absorption maximum reads like this: (in C1CCCCC1) 583.5 nm; (in CCOC(C)=O) 578 nm; (in CO) 576.5 nm.
With `CC(C)(C(=O)c1ccc(N2c3ccccc3Oc3ccccc32)cc1)C(=O)c1ccc(N2c3ccccc3Oc3ccccc32)cc1`, the absorption maximum (in Cc1ccccc1) came out at 416 nm.
Take `CC/[NH+]=c1\cc2oc3cc(NCCN)c4ccccc4c3nc-2cc1C`: the absorption maximum reads like this: (in CCO) 590 nm; (in O) 590 nm.
Consider `CC(C)(C)C1CCC(=CS/C=C/c2ccc(-c3ccc(/C=C/SC=C4CCC(C(C)(C)C)CC4)cc3)cc2)CC1` (configuration not stated), for which the absorption maximum (in ClCCl) came out at 350 nm.
`Cc1ccc(-c2cc(-c3ccccc3)c3c(N)nc(N4CCCC4)c(C#N)c3n2)cc1`: the absorption maximum reads like this: (in CC#N) 412 nm; (in CC(C)=O) 414 nm; (in CC(C)O) 414 nm; (in CO) 414 nm; (in ClC(Cl)Cl) 420 nm; (in ClCCl) 420 nm. Besides, the absorption maximum (in c1ccccc1) is recorded as 424 nm.
`Cc1cc(=O)oc2cc(/[NH+]=C/C=C3/C=C(C(=O)O)NC(C(=O)O)C3)ccc12` (configuration not stated) gave an absorption maximum (in O) of 520 nm.
Take `COc1ccc2ccc([O-])cc2c1`: the absorption maximum (in O) is listed as 337 nm.
With `CCCc1ccc(C#Cc2cc(C#Cc3ccc(N(C)C)cc3)c3ccc4c(C#Cc5ccc(N(C)C)cc5)cc(C#Cc5ccc(CCC)cc5)c5ccc2c3c54)cc1`, under “in ClCCl”, the absorption maximum is recorded as 488 nm.
Regarding `O=Cc1ccc(-c2ccc(O)c(-c3nc4ccccc4s3)c2)s1`, the absorption maximum reads like this: (in ClCCl) 350 nm; (in O) 338 nm.
As to `Cc1ccc2[nH]c(-c3ccc(-c4ccc(-c5ccc(-c6nc7cc(C)ccc7[nH]6)cc5)c(F)c4)cc3)nc2c1`, the absorption maximum (in CN(C)C=O) amounted to 344 nm.
As to `Nc1ccc2c(-c3ccccc3C(=O)[O-])c3ccc(=[NH2+])cc-3oc2c1`, the absorption maximum by setting is: (in CC#N) 500 nm; (in CCO) 499 nm; (in CN(C)C=O) 515 nm; (in O) 497 nm.
Consider `COc1cccc2cc(-c3cc4cccc(OC)c4oc3=O)oc12`, for which the absorption maximum runs as follows: (in CC#N) 352 nm; (in CCOC(C)=O) 351 nm; (in CS(C)=O) 359 nm; (in Cc1ccccc1) 358 nm; (in O) 363 nm.
Regarding `CC[n+]1c(C=C2C(=O)C(C=C3N(C)c4ccc(Cl)cc4C3(C)C)=C2[O-])sc2ccccc21`, the absorption maximum reads like this: (in CO) 634 nm; (in ClC(Cl)Cl) 649 nm; (in ClCCl) 650 nm.
`CC(C)(C)c1cc2c(c(C(C)(C)C)c1)O[B-](F)(F)[n+]1c-2nc(-c2ccccc2)c2ccccc21` displayed an absorption maximum (in Cc1ccccc1) of 410 nm.
`CC1=[N+]2C(=C(c3ccccc3)c3c4ccccc4c(C)n3[B-]2(F)F)c2ccccc21` had an absorption maximum (in CC#N) of 597 nm.
For `CC1=CC(/C=C/c2ccc(OCCCN=[N+]=[N-])cc2)=[N+]2C1=C(c1ccccc1)c1c(C)cc(C)n1[B-]2(F)F`, the absorption maximum (in CO) is 564 nm.
On to `O=C(O)c1ccc(-c2ccc(-c3nc(-c4ccccc4)c4ccccn34)cc2)s1`, for which, under “in CC#N”, the absorption maximum amounted to 362 nm.
For the compound `Cn1c(=O)cc(C(=O)c2ccccc2)c2sc(-c3ccc(N(c4ccccc4)c4ccccc4)cc3)cc21`, the absorption maximum runs as follows: (in CC#N) 430 nm; (in ClCCl) 438 nm.
`O=C1/C(=C2\Sc3ccc(S(=O)(=O)Cl)cc3C2=O)Sc2ccc(S(=O)(=O)Cl)cc21` gave an absorption maximum (in C1COCCO1) of 526 nm and an absorption maximum (in CS(C)=O) of 553 nm.
Compound `COC(=O)c1[nH]c(-c2ccc(OC)cc2)c2nnc3ccc(OC)cc3c12` showed an absorption maximum (in ClCCl) of 401 nm.
With `Cn1c2ccccc2c(=O)c2ccccc21`, the absorption maximum reads like this: (in CS(C)=O) 403 nm; (in O) 394 nm.
For `COc1cccc(C2=C3C=C(/C=C/C(=O)OC(C)(C)C)C=[N+]3[B-](F)(F)n3cccc32)c1`, the absorption maximum (in ClCCl) amounted to 539 nm.
Still for that read-out and setting: then `C(=C\c1ccncn1)/c1ccc(N(c2ccccc2)c2ccc(/C=C/c3ccncn3)cc2)cc1`, with 422 nm.
Take `Clc1cnc2nn3ccccc3c2c1`: the absorption maximum (in C1CCOC1) turned out to be 373 nm.
Regarding `CCCCc1ccc2c(c1)c1ccc3cccc4c3c1c1c2c2cccc3ccc5c6cc(CCCC)ccc6c4c1c5c32`, where the note is “in ClCCl”, the absorption maximum turned out to be 492 nm.
On the same count and under the same terms, then `COCCOCCOCCOCC(COCCOCCOCCOC)Oc1cc(/C=C/c2ccc(/C=C(\C#N)c3ccc(C(F)(F)F)cc3)cc2)c(OC(COCCOCCOCCOC)COCCOCCOCCOC)cc1/C=C/c1ccc(/C=C(\C#N)c2ccc(C(F)(F)F)cc2)cc1`, with 439 nm.
In the case of `OCCSc1cccc2[n+]1[B-](F)(F)n1c(c3cccc4cccc1c43)=N2`, the absorption maximum by setting is: (in C1CCOC1) 485 nm; (in CC#N) 480 nm; (in CCCCCC) 484 nm; (in Cc1ccccc1) 487 nm; (in ClCCl) 482 nm and 453 nm.
In turn, `CCn1c2cc(-c3cccs3)ccc2c2ccc(-c3cccs3)cc21` came in with an absorption maximum (in ClCCl) of 370 nm.
Compound `FC(F)(F)C(F)(F)C(F)(F)C(F)(F)C(F)(F)C(F)(F)CCOc1nnc(Cl)nn1` displayed an absorption maximum (in ClCCl) of 519 nm and an absorption maximum (in OCC(F)(F)F) of 519 nm.
Take `CCCCOc1c(C=C2N(C)c3ccccc3C2(C)C)c(=O)c1=O`: the absorption maximum (in CCO) stood at 425 nm.
Turning to `COC(=O)c1cc(=O)n(C)c2cc(-c3ccccc3OC)sc12`, the absorption maximum worked out at 396 nm (in CC#N) and 398 nm (in ClCCl).
`Cc1ccccc1-c1c2ccc(=[N+]3CCOCC3)cc-2oc2cc(N3CCCCC3)ccc12`: the absorption maximum is, setting by setting: (in CCO) 560 nm; (in ClCCl) 559 nm.
The compound `CCN(CC)c1ccc2c(c1)oc(=O)c1cc3c(-c4ccccc4)nn(C)c3nc12` came in with an absorption maximum (in ClCCl) of 350 nm.
For `N#Cc1nc(-c2ccc(N3c4ccccc4Oc4ccccc43)cc2)c(-c2ccc(N3c4ccccc4Oc4ccccc43)cc2)nc1C#N`, the absorption maximum (in Cc1ccccc1) is on record as 473 nm.
